Tested on: acquired MAPKi-resistant sub-lines (n=9) isogenic to the human BRAF^V600MUT and NRAS^Q61MUT parental cell lines
Assay: Long-term clonogenic growth of acquired MAPKi-resistant sub-lines
Format: cell-based
Settings: in combination with MAPKi, lower range of the concentrations tested
Protocol: FIGS. 4A-4U. DNA-PKi and/or PARPi co-treatment prevents acquired MAPKi-resistance in human melanoma cell lines. FIGS. 4A to 4O: Long-term clonogenic growth of isogenic parental and acquired MAPKi-resistant BRAF^V600MUT (4A to 4H) or NRAS^Q61MUT (4I to 4O) human melanoma cell lines showing acquired-resistant colonies to BRAFi+MEKi (PLX4032 at 0.5 mM, AZD6244 at 0.5 mM in 4A and 4G; PLX4032 at 0.25 mM, AZD6244 at 0.25 mM in 4D; PLX4032 at 1 mM, AZD6244 at 1 mM in 4B, 4C, 4E, 4F and 4H) or MEKi (trametinib at 0.005 mM in I and 0.01 mM in 4J and 4N; trametinib at 0.1 mM in 4K, 4M and 4O) and their suppression by indicated co-treatments with DNA-PKi (NU7026) and/or PARPi (ABT888) at indicated concentrations. Top, representative cultures; bottom, quantifications over n=4 fields (mean±SD). Data representative of 2 to 4 independent repeats. […] Representative results of two independent experiments; quantification of n=4 fields (mean±SD). […] Left, representative cultures; right, quantifications over n=4 fields (mean±SD). […] Top, representative cultures; bottom, quantifications over n=4 fields (mean±SD). […]

Row | Compound | anti-clonogenic activity in acquired MAPKi-resistant sub-lines compared to isogenic parental lines
1 | O=c1cc(N2CCOCC2)oc2c1ccc1ccccc12 [NU7026] | no or reduced anti-clonogenic activity
2 | C[C@]1(c2nc3c(C(N)=O)cccc3[nH]2)CCCN1 [ABT888, veliparib] | no or reduced anti-clonogenic activity

Source: US20260240842A1, “METHODS TO PREVENT THERAPY RESISTANCE IN MELANOMA VIA BLOCKING GENOMIC INSTABILITY” (THE REGENTS OF THE UNIVERSITY OF CALIFORNIA, priority 2022, published 2026)
